In US9695155B2, “Herbicidal substituted pyrimidinyloxy benzene compounds” (E. I. DU PONT DE NEMOURS AND COMPANY, priority 2013, dated 2017):

Key:
hairy beggarticks = test: Test E postemergence; format: in vivo, Bidens pilosa; conditions: Bidens pilosa, post-emergence, read-out: Plant response rating, Beggarticks
Procedure, shortened: (§1)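 Response was scored visually on a 0-100 scale (100 = complete control) versus controls after 14 to 21 days in the greenhouse. Test chemicals, formulated with surfactant in a non-phytotoxic solvent mixture, had been applied preemergence to seeds in silt loam soil or postemergence to 1- to 4-leaf plants in potting medium.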

deadnettle = test: Test D postemergence; format: in vivo, Lamium amplexicaule; conditions: Lamium amplexicaule, post-emergence, scale 0 to 100 (0 no effect, 100 complete control), read-out: Plant response rating, Deadnettle
Procedure, shortened: (§2)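 Solvent/surfactant formulations are sprayed pre (silt loam) or post (1–4 leaf plants, 2–18 cm). Plants stay 7–21 days in controlled conditions before a visual 0–100 score is given.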

bluegrass = test: Test D postemergence; format: in vivo, Poa annua; conditions: Poa annua, post-emergence, Postemergence, scale 0 to 100 (0 no effect, 100 complete control), read-out: Plant response rating, Bluegrass
Procedure, shortened: as §2

Brazilian crabgrass = test: Test E postemergence; format: in vivo, Digitaria horizontalis; conditions: Digitaria horizontalis, post-emergence, read-out: Plant response rating, Crabgrass, Brazil
Procedure, shortened: as §1

corn = test: Test E postemergence; format: in vivo, Zea mays; conditions: Zea mays, post-emergence
Procedure, shortened: as §1

blackgrass = test: Test D postemergence; format: in vivo, Alopecurus myosuroides; conditions: Alopecurus myosuroides, post-emergence, Postemergence, scale 0 to 100 (0 no effect, 100 complete control), read-out: Plant response rating, Blackgrass
Procedure, shortened: as §2

wild radish = test: Test D preemergence; format: in vivo, Raphanus raphanistrum; conditions: Raphanus raphanistrum, pre-emergence
Procedure, shortened: as §2

pigweed = test: Test D preemergence; format: in vivo, Amaranthus retroflexus; conditions: Amaranthus retroflexus, pre-emergence
Procedure, shortened: as §2

winter barley = test: Test D postemergence; format: in vivo, Hordeum vulgare; conditions: Hordeum vulgare, post-emergence, Postemergence, scale 0 to 100 (0 no effect, 100 complete control), read-out: Plant response rating, Barley, Winter
Procedure, shortened: as §2

spring barley = test: Test D postemergence; format: in vivo, Hordeum vulgare; conditions: Hordeum vulgare, post-emergence, Postemergence, scale 0 to 100 (0 no effect, 100 complete control), read-out: Plant response rating, Barley, Spring
Procedure, shortened: as §2

wild mustard = test: Test D preemergence; format: in vivo, Sinapis arvensis; conditions: Brassica, pre-emergence, scale 0-100, read-out: Plant response rating, Mustard, Wild
Procedure, shortened: as §2

field poppy = test: Test D postemergence; format: in vivo, Papaver rhoeas; conditions: Papaver rhoeas, post-emergence, scale 0 to 100 (0 no effect, 100 complete control), read-out: Plant response rating, Field Poppy
Procedure, shortened: as §2

[1] = Postemergence, 31 g ai/ha, scale 0 to 100
[2] = Postemergence, 62 g ai/ha, scale 0 to 100
[3] = Postemergence, 125 g ai/ha, scale 0 to 100
[4] = Postemergence, 250 g ai/ha, scale 0 to 100
[5] = postemergence, 16 g ai/ha, scale 0 to 100, 0 no effect, 100 complete control

With `N#Cc1cccc(Oc2ncc(Cl)cn2)c1-n1cc(C(F)(F)F)cn1` [Compound 58, 3-[(5-chloro-2-pyrimidinyl)oxy]-2-[4-(trifluoromethyl)-1H-pyrazol-1-yl]benzonitrile] the pest or weed control at 31 g/ha (hairy beggarticks; [1]) was 65%, the pest or weed control at 62 g/ha (hairy beggarticks; [2]) was 80% and the pest or weed control at 125 g/ha (hairy beggarticks; [3]) was 90%. For the same molecule, the pest or weed control at 250 g/ha (hairy beggarticks; [4]) was 95%, the pest or weed control at 16 g/ha (hairy beggarticks; [5]) was 60% and the pest or weed control at 31 g/ha (deadnettle; 31 g ai/ha) was 80%. The pest or weed control at 62 g/ha (deadnettle; 62 g ai/ha) was 100%, the pest or weed control at 125 g/ha (deadnettle; 125 g ai/ha) was 100% and the pest or weed control at 250 g/ha (deadnettle; 250 g ai/ha) was 100%. It also gave a pest or weed control at 31 g/ha (bluegrass; 31 g ai/ha) of 25%, a pest or weed control at 62 g/ha (bluegrass; 62 g ai/ha) of 35% and a pest or weed control at 125 g/ha (bluegrass; 125 g ai/ha) of 45%. The pest or weed control at 250 g/ha (bluegrass; 250 g ai/ha) was 55%, the pest or weed control at 31 g/ha (Brazilian crabgrass; [1]) was 20% and the pest or weed control at 62 g/ha (Brazilian crabgrass; [2]) was 40%. For the same molecule, the pest or weed control at 125 g/ha (Brazilian crabgrass; [3]) was 55%, the pest or weed control at 250 g/ha (Brazilian crabgrass; [4]) was 75% and the pest or weed control at 16 g/ha (Brazilian crabgrass; [5]) was 10%. The corn plant response (injury) rating, 0-100 at 31 g/ha (corn; [1]) was 10%, the corn plant response (injury) rating, 0-100 at 62 g/ha (corn; [2]) was 10% and the corn plant response (injury) rating, 0-100 at 125 g/ha (corn; [3]) was 10%. It also gave a corn plant response (injury) rating, 0-100 at 250 g/ha (corn; [4]) of 15%, a corn plant response (injury) rating, 0-100 at 16 g/ha (corn; [5]) of 5% and a pest or weed control at 62 g/ha (blackgrass; 62 g ai/ha) of 45%. The pest or weed control at 31 g/ha (blackgrass; 31 g ai/ha) was 20%, the pest or weed control at 125 g/ha (blackgrass; 125 g ai/ha) was 70% and the pest or weed control at 250 g/ha (blackgrass; 250 g ai/ha) was 90%. For the same molecule, the pest or weed control at 31 g/ha (wild radish; 31 g ai/ha, scale 0 (no effect) to 100 (complete control), read-out: Plant response rating, Radish, Wild) was 100%, the pest or weed control at 62 g/ha (wild radish; 62 g ai/ha, scale 0-100, read-out: Plant response rating, Radish, Wild) was 100% and the pest or weed control at 125 g/ha (wild radish; 125 g ai/ha, scale 0-100, read-out: Plant response rating, Radish, Wild) was 100%. The pest or weed control at 250 g/ha (wild radish; 250 g ai/ha, scale 0-100, read-out: Plant response rating, Radish, Wild) was 100%, the pest or weed control at 31 g/ha (pigweed; 31 g ai/ha, scale 0 (no effect) to 100 (complete control), read-out: Plant response rating, Pigweed) was 100% and the pest or weed control at 62 g/ha (pigweed; 62 g ai/ha, scale 0-100, read-out: Plant response rating, Pigweed) was 100%. The pest or weed control at 125 g/ha (pigweed; 125 g ai/ha, scale 0-100, read-out: Plant response rating, Pigweed) was 100%, the pest or weed control at 250 g/ha (pigweed; 250 g ai/ha, scale 0-100, read-out: Plant response rating, Pigweed) was 100% and the plant injury at 31 g/ha (winter barley; 31 g ai/ha) was 10%. It also gave a plant injury at 62 g/ha (winter barley; 62 g ai/ha) of 15%, a plant injury at 125 g/ha (winter barley; 125 g ai/ha) of 25% and a plant injury at 250 g/ha (winter barley; 250 g ai/ha) of 50%. It also gave a plant injury at 31 g/ha (spring barley; 31 g ai/ha) of 15%, a plant injury at 62 g/ha (spring barley; 62 g ai/ha) of 20% and a plant injury at 125 g/ha (spring barley; 125 g ai/ha) of 30%. For the same molecule, the plant injury at 250 g/ha (spring barley; 250 g ai/ha) was 40%, the pest or weed control at 31 g/ha (wild mustard; 31 g ai/ha) was 90% and the pest or weed control at 62 g/ha (wild mustard; 62 g ai/ha) was 100%. For the same molecule, the pest or weed control at 125 g/ha (wild mustard; 125 g ai/ha) was 100%, the pest or weed control at 250 g/ha (wild mustard; 250 g ai/ha) was 100% and the pest or weed control at 31 g/ha (field poppy; 31 g ai/ha) was 80%. It also gave a pest or weed control at 62 g/ha (field poppy; 62 g ai/ha) of 85%, a pest or weed control at 125 g/ha (field poppy; 125 g ai/ha) of 100% and a pest or weed control at 250 g/ha (field poppy; 250 g ai/ha) of 100%.
